Results as given in patent US20200061062A1, “INHIBITORS OF HUMAN PHOSPHATIDYLINOSITOL 3-KINASE DELTA” (ICOS Corporation, priority 2000, published 2020).

Test system: human neutrophils
Experiment: Superoxide production from neutrophils (cytochrome C reduction)
Type: cell-based
Description: Aliquots (8 mL) of heparinized blood from healthy volunteers were layered on 3 mL cushions of 7.3% FICOLL® (Sigma, St. Louis, Mo.) and 15.4% HYPAQUE® (Sigma) and centrifuged at 900 rpm for 30 min at room temperature in a table top centrifuge (Beckman). The neutrophil-rich band just above the FICOLL®-HYPAQUE® cushion was collected and washed with Hanks' balanced salt solution (HBSS) containing 0.1% gelatin. Residual erythrocytes were removed by hypotonic lysis with 0.2% NaCl. The neutrophil preparation was washed twice with HBSS containing 0.1% gelatin and used immediately.
Superoxide generation is one of the hallmarks of neutrophil activation. A variety of activators potentiate superoxide generation by neutrophils. The effect of the PI3Kδ inhibitor D-000 on superoxide generation by three different agonists: TNF1α, IgG, and fMLP, each representing separate classes of activator, was measured. Superoxide generated by the neutrophils was measured by monitoring the change in absorbance upon reduction of cytochrome C by modification of the method described by Green et al., (pp. 14.5.1-14.5.11 in Supp. 12, Curr Protocols Immunol (Eds., Colligan et al.) (1994)), as follows. Individual wells of a 96-well plate were coated overnight at 4° C. with 50 μL of 2 mg/mL solution of human fibrinogen or IgG. The wells were washed with PBS and the following reagents were added to each well: 50 μL of HBSS or superoxide dismutase (1 mg/mL), 50 μL of HBSS or TNF1α (50 ng/mL), 50 μL cytochrome C (2.7 mg/mL), and 100 μL of purified human neutrophil suspension ([…] cells/mL). The plate was centrifuged for 2 min at 200 rpm and absorbance at 550 nm was monitored for 2 hr. To measure the relative amounts of superoxide generated, values obtained from the superoxide dismutase-containing wells were subtracted from all, and normalized to the values obtained from the wells without any inhibitor.

In the case of `O=c1c2ccccc2nc(CSc2ncnc3[nH]cnc23)n1-c1ccccc1Cl` [Compound D-000, 3-(2-chlorophenyl)-2-(9H-purin-6-ylsulfanylmethyl)-3H-quinazolin-4-one], the IC50 (Homo sapiens, Neutrophil, TNF stimulus, FIG. 2, read-out: Concentration reducing TNF-induced superoxide generation to its half-maximal value) is reported as about 3000 nM, the “Effect on superoxide generation induced by IgG” value (IgG stimulus, at 10 μM, FIG. 2) is reported as “did not have any effect” and the “Effect on fMLP-induced superoxide generation” value (fMLP stimulus, FIG. 3) is reported as “inhibited”.
